PubChem BioAssay AID256 (DTP/NCI, 2004)
Where “and” joins values, the source holds several entries; their conditions need not be identical. Equal entries are not always repeated. Toxic doses and inconclusive results are not listed.

Tested on: CD2F1 mice, L1210 leukemia ip, survival T/C
Experiment: NCI In Vivo Anticancer Drug Screen. Data for tumor model L1210 Leukemia (intraperitoneal) in CD2F1 (CDF1) mice
Details: higher = longer survival
Method in brief: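 Mice carrying a transplanted tumor received test compound or vehicle alone. The value is the measurement in the treated group divided by that in the vehicle-treated control group.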

[1] = endpoint: mean survival time, dose: 100.0 mg/kg/injection, schedule: Q04DX003 (ip), vehicle: saline with Tween-80
[2] = endpoint: mean survival time, dose: 200.0 mg/kg/injection, schedule: Q04DX003 (ip), vehicle: saline with Tween-80
[3] = endpoint: mean survival time, dose: 400.0 mg/kg/injection, schedule: Q04DX003 (ip), vehicle: saline with Tween-80
[4] = endpoint: mean survival time, dose: 50.0 mg/kg/injection, schedule: Q04DX002 (ip), vehicle: saline with Tween-80
[5] = endpoint: mean survival time, dose: 100.0 mg/kg/injection, schedule: Q04DX002 (ip), vehicle: saline with Tween-80
[6] = endpoint: mean survival time, dose: 100.0 mg/kg/injection, schedule: Q01DX001 (ip), vehicle: saline with Tween-80
[7] = endpoint: mean survival time, dose: 200.0 mg/kg/injection, schedule: Q01DX001 (ip), vehicle: saline with Tween-80

COc1c2c(c(OC)c3c(OC)c4ccccc4c(OC)c13)CC(O)CC2 (stereo unspecified)
T/C (endpoint: mean survival time, dose: 12.5 mg/kg/injection, schedule: Q01DX005 (ip), vehicle: Klucel (hydroxypropylcellulose) (HPC)): 92 % of control | T/C (endpoint: mean survival time, dose: 25.0 mg/kg/injection, schedule: Q01DX005 (ip), vehicle: Klucel (hydroxypropylcellulose) (HPC)): 90 % of control | T/C (endpoint: mean survival time, dose: 50.0 mg/kg/injection, schedule: Q01DX005 (ip), vehicle: Klucel (hydroxypropylcellulose) (HPC)): 97 % of control | T/C (endpoint: mean survival time, dose: 100.0 mg/kg/injection, schedule: Q01DX005 (ip), vehicle: Klucel (hydroxypropylcellulose) (HPC)): 92 % of control | T/C (endpoint: mean survival time, dose: 200.0 mg/kg/injection, schedule: Q01DX005 (ip), vehicle: Klucel (hydroxypropylcellulose) (HPC)): 103 % of control | T/C (endpoint: mean survival time, dose: 400.0 mg/kg/injection, schedule: Q01DX005 (ip), vehicle: Klucel (hydroxypropylcellulose) (HPC)): 87 % of control

O=C(OC(c1ccccc1)(C(F)(F)F)C(F)(F)F)c1ccccc1Sc1ccccc1
T/C [1]: 98 % of control | T/C [2]: 93 % of control | T/C [3]: 93 % of control

CC12C(=O)OC(=O)C1(C)C1OC2C(Br)C1Br (stereo unspecified)
T/C (endpoint: mean survival time, dose: 25.0 mg/kg/injection, schedule: Q04DX003 (ip), vehicle: saline with Tween-80): 96 % of control | T/C (endpoint: mean survival time, dose: 50.0 mg/kg/injection, schedule: Q04DX003 (ip), vehicle: saline with Tween-80): 96 % of control | T/C [1]: 93 % of control and 101 % of control

CSc1ncnc2c1ccn2C1OC(COP(=O)(O)O)C(O)C1O (stereo unspecified)
T/C (endpoint: mean survival time, dose: 12.5 mg/kg/injection, schedule: Q01DX005 (ip), vehicle: water): 105 % of control | T/C (endpoint: mean survival time, dose: 25.0 mg/kg/injection, schedule: Q01DX005 (ip), vehicle: water): 108 % of control and 111 % of control | T/C (endpoint: mean survival time, dose: 50.0 mg/kg/injection, schedule: Q01DX005 (ip), vehicle: water): 114 % of control and 109 % of control | T/C (endpoint: mean survival time, dose: 150.0 mg/kg/injection, schedule: Q01DX005 (ip), vehicle: water): 121 % of control

Cc1ccc(NCC(=O)O)c([N+](=O)[O-])c1
T/C [1]: 95 % of control | T/C [2]: 103 % of control

O=C(Nc1ccc(C(=O)O)cc1)Nc1ccc(F)c(Cl)c1
T/C (endpoint: mean survival time, dose: 50.0 mg/kg/injection, schedule: Q01DX009 (ip), vehicle: Klucel (hydroxypropylcellulose) (HPC)): 109 % of control | T/C (endpoint: mean survival time, dose: 100.0 mg/kg/injection, schedule: Q01DX009 (ip), vehicle: Klucel (hydroxypropylcellulose) (HPC)): 102 % of control | T/C (endpoint: mean survival time, dose: 100.0 mg/kg/injection, schedule: Q04DX003 (ip), vehicle: Klucel (hydroxypropylcellulose) (HPC)): 104 % of control | T/C (endpoint: mean survival time, dose: 200.0 mg/kg/injection, schedule: Q01DX009 (ip), vehicle: Klucel (hydroxypropylcellulose) (HPC)): 95 % of control | T/C (endpoint: mean survival time, dose: 200.0 mg/kg/injection, schedule: Q04DX003 (ip), vehicle: Klucel (hydroxypropylcellulose) (HPC)): 104 % of control

OCC1OC(n2nnc3cc[nH]c(=S)c32)C(O)C1O (stereo unspecified)
T/C (endpoint: mean survival time, dose: 11.9 mg/kg/injection, schedule: Q01DX005 (ip), vehicle: water): 96 % of control | T/C (endpoint: mean survival time, dose: 23.8 mg/kg/injection, schedule: Q01DX005 (ip), vehicle: water): 113 % of control

COc1ccc2nc3cc(Cl)ccc3c(NCCC[N+](C)(C)CCCCCCCCCCCCCCCC[N+](C)(C)CCCNc3c4ccc(Cl)cc4nc4ccc(OC)cc34)c2c1
T/C (endpoint: mean survival time, dose: 1.56 mg/kg/injection, schedule: Q01DX009 (ip), vehicle: other): 96 % of control | T/C (endpoint: mean survival time, dose: 3.13 mg/kg/injection, schedule: Q01DX009 (ip), vehicle: other): 94 % of control | T/C (endpoint: mean survival time, dose: 6.25 mg/kg/injection, schedule: Q01DX009 (ip), vehicle: other): 105 % of control

Cc1cc(C)c(NC2=NCCS2)cc1C
T/C (endpoint: mean survival time, dose: 25.0 mg/kg/injection, schedule: Q04DX002 (ip), vehicle: saline with Tween-80): 101 % of control | T/C [4]: 104 % of control | T/C [5]: 101 % of control

CC[S+](CC)CC
T/C (endpoint: mean survival time, dose: 50.0 mg/kg/injection, schedule: Q01DX009 (ip), vehicle: saline): 100 % of control | T/C (endpoint: mean survival time, dose: 100.0 mg/kg/injection, schedule: Q01DX009 (ip), vehicle: saline): 97 % of control

O=C1O/C(=C2/OC(=O)c3ccccc32)c2ccccc21
T/C [4]: 92 % of control | T/C [5]: 92 % of control | T/C (endpoint: mean survival time, dose: 200.0 mg/kg/injection, schedule: Q04DX002 (ip), vehicle: saline with Tween-80): 92 % of control | T/C (endpoint: mean survival time, dose: 400.0 mg/kg/injection, schedule: Q04DX002 (ip), vehicle: saline with Tween-80): 96 % of control

CCNC(=O)c1ccccc1N=NN(C)C
T/C (endpoint: mean survival time, dose: 18.7 mg/kg/injection, schedule: Q01DX009 (ip), vehicle: Klucel (hydroxypropylcellulose) (HPC)): 105 % of control | T/C (endpoint: mean survival time, dose: 18.75 mg/kg/injection, schedule: Q01DX009 (ip), vehicle: Klucel (hydroxypropylcellulose) (HPC)): 92 % of control and 97 % of control

COC(COC(=O)N1CCN(C=O)CC1)C1=C(N2CC2)C(=O)C(C)=C(N2CC2)C1=O (stereo unspecified)
T/C (endpoint: median survival time, dose: 3.0 mg/kg/injection, schedule: Q01DX005 (ip), vehicle: saline): 168 % of control | T/C (endpoint: median survival time, dose: 3.6 mg/kg/injection, schedule: Q01DX005 (ip), vehicle: saline): 160 % of control | T/C (endpoint: median survival time, dose: 6.0 mg/kg/injection, schedule: Q01DX005 (ip), vehicle: saline): 190 % of control and 191 % of control | T/C (endpoint: median survival time, dose: 12.0 mg/kg/injection, schedule: Q01DX005 (ip), vehicle: saline): 111 % of control

S=C(Nc1ccc(Cl)cc1)Nc1ccc(Cc2ccc(NC(=S)Nc3ccc(Cl)cc3)cc2)cc1
T/C (endpoint: mean survival time, dose: 100.0 mg/kg/injection, schedule: Q01DX001 (ip), vehicle: Klucel (hydroxypropylcellulose) (HPC)): 93 % of control | T/C (endpoint: mean survival time, dose: 200.0 mg/kg/injection, schedule: Q01DX001 (ip), vehicle: Klucel (hydroxypropylcellulose) (HPC)): 92 % of control | T/C (endpoint: mean survival time, dose: 400.0 mg/kg/injection, schedule: Q01DX001 (ip), vehicle: Klucel (hydroxypropylcellulose) (HPC)): 93 % of control

O=C(CCc1ccc(S(=O)(=O)F)cc1)Nc1cccc(-c2nc3nc[nH]c(=O)c3[nH]2)c1
T/C (endpoint: mean survival time, dose: 50.0 mg/kg/injection, schedule: Q01DX001 (ip), vehicle: saline with Tween-80): 94 % of control | T/C [6]: 94 % of control | T/C [7]: 90 % of control

Clc1ccccc1-c1nc2ccccc2s1
T/C [6]: 91 % of control | T/C [1]: 97 % of control | T/C [7]: 91 % of control | T/C [2]: 96 % of control | T/C (endpoint: mean survival time, dose: 400.0 mg/kg/injection, schedule: Q01DX001 (ip), vehicle: saline with Tween-80): 91 % of control | T/C [3]: 92 % of control

OCC1OC(n2c(SCc3ccccc3)nc3ccccc32)C(O)C1O (stereo unspecified)
T/C (endpoint: mean survival time, dose: 100.0 mg/kg/injection, schedule: Q01DX001 (ip), vehicle: saline): 102 % of control | T/C (endpoint: mean survival time, dose: 200.0 mg/kg/injection, schedule: Q01DX001 (ip), vehicle: saline): 102 % of control | T/C (endpoint: mean survival time, dose: 400.0 mg/kg/injection, schedule: Q01DX001 (ip), vehicle: saline): 97 % of control

CC(NNC(=S)N(C)C1CCCCC1)c1cc2ccccc2cn1 (stereo unspecified)
T/C (endpoint: median survival time, dose: 12.5 mg/kg/injection, schedule: Q01DX005 (ip), vehicle: saline with Tween-80): 103 % of control | T/C (endpoint: median survival time, dose: 12.5 mg/kg/injection, schedule: Q01DX005 (ip), vehicle: saline): 97 % of control | T/C (endpoint: median survival time, dose: 25.0 mg/kg/injection, schedule: Q01DX005 (ip), vehicle: saline with Tween-80): 120 % of control | T/C (endpoint: median survival time, dose: 25.0 mg/kg/injection, schedule: Q01DX005 (ip), vehicle: saline): 102 % of control and 109 % of control | T/C (endpoint: median survival time, dose: 50.0 mg/kg/injection, schedule: Q01DX005 (ip), vehicle: saline with Tween-80): 90 % of control | T/C (endpoint: median survival time, dose: 50.0 mg/kg/injection, schedule: Q01DX005 (ip), vehicle: saline): 113 % of control and 114 % of control

CCC1(O)C(=O)OCc2c1cc1n(c2=O)Cc2cc3cc4c(cc3nc2-1)OCO4 (stereo unspecified)
T/C (endpoint: median survival time, dose: 1.0 mg/kg/injection, schedule: Q01DX005 (ip), vehicle: saline with Tween-80): 192 % of control | T/C (endpoint: median survival time, dose: 2.0 mg/kg/injection, schedule: Q01DX005 (ip), vehicle: saline with Tween-80): 114 % of control | T/C (endpoint: median survival time, dose: 2.0 mg/kg/injection, schedule: Q04DX002 (ip), vehicle: saline with Tween-80): 325 % of control | T/C (endpoint: median survival time, dose: 4.0 mg/kg/injection, schedule: Q01DX005 (ip), vehicle: saline with Tween-80): 101 % of control | T/C (endpoint: median survival time, dose: 4.0 mg/kg/injection, schedule: Q04DX002 (ip), vehicle: saline with Tween-80): 190 % of control and 228 % of control | T/C (endpoint: median survival time, dose: 16.0 mg/kg/injection, schedule: Q04DX002 (ip), vehicle: saline with Tween-80): 115 % of control and 124 % of control | T/C (endpoint: median survival time, dose: 32.0 mg/kg/injection, schedule: Q04DX002 (ip), vehicle: saline with Tween-80): 97 % of control

O=[P+](O)O[P+](=O)O.O=[P+](O)O[P+](=O)O.O=[P+](O)O[P+](=O)O.O=[P+](O)O[P+](=O)O.[Cl][Pt].[Cl][Pt]
T/C (endpoint: median survival time, dose: 3.12 mg/kg/injection, schedule: Q04DX003 (ip), vehicle: saline): 102 % of control | T/C (endpoint: median survival time, dose: 6.25 mg/kg/injection, schedule: Q04DX003 (ip), vehicle: saline): 96 % of control | T/C (endpoint: median survival time, dose: 12.5 mg/kg/injection, schedule: Q04DX003 (ip), vehicle: saline): 95 % of control | T/C (endpoint: median survival time, dose: 25.0 mg/kg/injection, schedule: Q04DX003 (ip), vehicle: saline): 97 % of control | T/C (endpoint: median survival time, dose: 50.0 mg/kg/injection, schedule: Q04DX003 (ip), vehicle: saline): 104 % of control
